SMILES strings stand for the structures.

The test concerns the target T1, HPK1 (Homo sapiens, UniProt Q92918).
T1 construct: A HiBiT tag was introduced by CRISPR on the N terminus of HPK1 in Jurkat cells; host or cells: Jurkat cells (ATCC TIB-152), monoclonal line with CRISPR knock-in of HiBiT at the endogenous HPK1 locus
Briefly: HPK1 Cellular HiBit Degradation Assay. Particulars: HiBiT HPK1 Jurkat cells, 24 hrs; for DC50: concentration at which 50% of HPK1 was remaining, read-out: DC50 Category; for Dmax: Jurkat, read-out: Dmax Category. The test is classed as cell-based. The essentials: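 Jurkat cells with CRISPR knock-in N-terminal HiBiT-HPK1 were treated with CTMs (11-point, 3.16-fold, 10 uM to 0.1 nM final) for 24 hrs at 37° C. HiBiT lytic luminescence, with parental Jurkat as background and DMSO as 100%, gave % HPK1 remaining; four-parameter fit yielded DC50 and Dmax (100 minus lowest % remaining).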

[1] abbreviates: maximum degradation vs DMSO vehicle control.

T1 sequence (Q92918 whole entry): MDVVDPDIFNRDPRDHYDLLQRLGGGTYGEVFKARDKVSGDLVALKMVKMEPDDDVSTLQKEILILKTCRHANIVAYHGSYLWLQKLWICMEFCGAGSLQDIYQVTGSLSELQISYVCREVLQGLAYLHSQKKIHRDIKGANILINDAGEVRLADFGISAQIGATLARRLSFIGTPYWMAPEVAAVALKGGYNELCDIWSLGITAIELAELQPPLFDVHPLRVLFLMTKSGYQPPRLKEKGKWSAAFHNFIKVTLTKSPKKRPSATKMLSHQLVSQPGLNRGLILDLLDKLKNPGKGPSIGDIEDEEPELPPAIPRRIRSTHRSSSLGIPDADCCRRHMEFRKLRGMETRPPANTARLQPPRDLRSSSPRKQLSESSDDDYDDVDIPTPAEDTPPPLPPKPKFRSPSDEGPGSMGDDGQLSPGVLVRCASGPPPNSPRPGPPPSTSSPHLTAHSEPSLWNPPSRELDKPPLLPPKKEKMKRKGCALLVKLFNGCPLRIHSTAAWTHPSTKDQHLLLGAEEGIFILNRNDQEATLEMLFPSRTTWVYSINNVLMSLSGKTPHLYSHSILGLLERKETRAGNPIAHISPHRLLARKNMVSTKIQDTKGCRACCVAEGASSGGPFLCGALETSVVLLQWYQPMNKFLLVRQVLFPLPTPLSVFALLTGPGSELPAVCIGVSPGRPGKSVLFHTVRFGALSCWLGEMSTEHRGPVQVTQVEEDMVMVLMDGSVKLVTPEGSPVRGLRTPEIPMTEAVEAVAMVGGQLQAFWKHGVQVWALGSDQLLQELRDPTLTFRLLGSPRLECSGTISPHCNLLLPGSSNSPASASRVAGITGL

As usually defined, the DC50 is the concentration giving 50% degradation. By Dmax is commonly meant the greatest extent of degradation seen. For `CC(C)n1cnc2cc(-c3ccc4c(c3)N([C@H]3C[C@@H](N5CCCCC5)C3)C(=O)C43CCN(C(=O)C4CC45CCN(C(=O)C4CCN(c6ccc(C7CCC(=O)NC7=O)cn6)CC4)C5)CC3)nc(NC3CC3)c21` (mixture of isomers) [Example 303, (3RS)-3-(6-{4-[1-({6-[4-(cyclopropylamino)-3-(propan-2-yl)-3H-imidazo[4,5-c]pyridin-6-yl]-2-oxo-1-[(1S,3S)-3-(piperidin-1-yl)cyclobutyl]-1,2-dihydrospiro[indole-3,4′-piperidin]-1′-yl}carbonyl)-5-azaspiro[2.4]heptane-5-carbonyl]piperidin-1-yl}pyridin-3-yl)piperidine-2,6-dione], the DC50 fell in the range of 500 to 1000 nM. In addition, the maximal degradation (Dmax) under setting [1] is 50 to 70%.
In the case of `CC(C)n1cnc2cc(-c3ccc4c(c3)N([C@H]3C[C@@H](N5CCCCC5)C3)C(=O)C43CCN(C(=O)C4(C)CCN(C(=O)C5CCN(c6ccc([C@H]7CCC(=O)NC7=O)cn6)CC5)CC4)CC3)nc(NC3CC3)c21` (single isomer, unassigned) [Example 212], the DC50 was under 100 nM. For the same molecule, the “Dmax Category” value under setting [1] was “B (B: >70%-<85%)”.
As to `CC(C)n1cnc2cc(-c3ccc4c(c3)N([C@H]3C[C@@H](N5CCCCC5)C3)C(=O)C43CCN(C(=O)[C@@H]4CCN(C(=O)[C@H]5CC[C@H](Nc6ccc(C7CCC(=O)NC7=O)cc6)CC5)C4)CC3)nc(Nc3ccncc3F)c21` (stereo partly drawn) [Example 4, 3-(4-(((1R,4R)-4-((R)-3-(6-(4-((3-fluoropyridin-4-yl)amino)-3-isopropyl-3H-imidazo[4,5-c]pyridin-6-yl)-2-oxo-1-((1S,3S)-3-(piperidin-1-yl)cyclobutyl)spiro[indoline-3,4′-piperidine]-1′-carbonyl)pyrrolidine-1-carbonyl)cyclohexyl)amino)phenyl)piperidine-2,6-dione], the 50% degradation concentration (DC50) is under 100 nM. Also, the Dmax under setting [1] is over 85%.
With `CC(C)n1cnc2cc(-c3ccc4c(c3)N([C@H]3C[C@@H](N5CCCCC5)C3)C(=O)C43CCN(C(=O)[C@@H]4CCN(C(=O)[C@H]5CC[C@H](Oc6ccc(C7CCC(=O)NC7=O)cc6)CC5)C4)CC3)nc(NC3CC3)c21` (stereo partly drawn) [Example 13, 3-(4-{[(1R,4R)-4-[(3R)-3-({6-[4-(cyclopropylamino)-3-(propan-2-yl)-3H-imidazo[4,5-c]pyridin-6-yl]-2-oxo-1-[(1S,3S)-3-(piperidin-1-yl)cyclobutyl]-1,2-dihydrospiro[indole-3,4′-piperidin]-1′-yl}carbonyl)pyrrolidine-1-carbonyl]cyclohexyl]oxy}phenyl)piperidine-2,6-dione], the DC50 was under 100 nM. Moreover, under setting [1], the Dmax was over 85%.
The matching figures for `CC(C)n1cnc2cc(-c3ccc4c(c3)N([C@H]3C[C@@H](N5CCCCC5)C3)C(=O)C43CCN(C(=O)[C@@H]4CCN(C(=O)[C@H]5CC[C@H](Oc6ccc(C7CCC(=O)NC7=O)cc6)CC5)C4)CC3)nc(Nc3ccccc3F)c21` (stereo partly drawn) [Example 14, 3-(4-{[(1R,4R)-4-[(3R)-3-[(6-{4-[(2-fluorophenyl)amino]-3-(propan-2-yl)-3H-imidazo[4,5-c]pyridin-6-yl}-2-oxo-1-[(1S,3S)-3-(piperidin-1-yl)cyclobutyl]-1,2-dihydrospiro[indole-3,4′-piperidin]-1′-yl)carbonyl]pyrrolidine-1-carbonyl]cyclohexyl]oxy}phenyl)piperidine-2,6-dione]: under 100 nM and over 85%.
`CC(C)n1cnc2cc(-c3ccc4c(c3)N([C@H]3C[C@@H](N5CCCCC5)C3)C(=O)C43CCN(C(=O)[C@@H]4CCN(C(=O)[C@H]5CC[C@H](Oc6ccc(C7CCC(=O)NC7=O)cc6)CC5)C4)CC3)nc(Nc3ccncc3F)c21` (stereo partly drawn) [Example 15, 3-(4-{[(1R,4R)-4-[(3R)-3-[(6-{4-[(3-fluoropyridin-4-yl)amino]-3-(propan-2-yl)-3H-imidazo[4,5-c]pyridin-6-yl}-2-oxo-1-[(1S,3S)-3-(piperidin-1-yl)cyclobutyl]-1,2-dihydrospiro[indole-3,4′-piperidin]-1′-yl)carbonyl]pyrrolidine-1-carbonyl]cyclohexyl]oxy}phenyl)piperidine-2,6-dione]: the DC50 was under 100 nM. Also, the Dmax under setting [1] was over 85%.

These data come from patent US12091426B2, “Bifunctional degraders of hematopoietic progenitor kinase and therapeutic uses thereof” (Nurix Therapeutics, Inc., priority 2021, dated 2024).
